According to US20260263418A1, “AGENTS FOR ENHANCING DOPAMINE RELEASE, IMPROVING MOTOR CONTROL FUNCTION, IMPROVING MOTOR LEARNING FUNCTION AND IMPROVING ACTIVITY MOTIVATION” (MEIJI CO., LTD., priority 2023, published 2026):
Where “and” joins values, the source holds several entries; their conditions need not be identical. Equal values may be shown once. Peptide text beside a SMILES is read from it.

System: PC12 cells
Assay: Dopamine release from PC12 cells after dipeptide addition (LC-MS/MS of supernatant)
Type: cell-based
Details: 6 hours; for Change in dopamine concentration compared to the non-stimulated group / Dopamine concentration after stimulation, Mean ± Standard deviation / Percentage relative to non-stimulated group: 1 mM dipeptide; for Change in dopamine concentration compared to the non-stimulated group: Student's t-test, significance level 5%; for Dopamine concentration after stimulation, Mean ± Standard deviation: 3 wells; for Dopamine concentration after stimulation, Mean ± Standard deviation / Dopamine concentration after stimulation: 37° C., supernatant; for Percentage relative to non-stimulated group: dopamine concentration, non-stimulated group = 100; for Dopamine concentration after stimulation: individual wells, 1 mM dipeptide in medium
Description: PC12 cells were seeded in a 96-well plate at a cell count of 2×10^4 cells/well using DMEM containing 10% by volume of HS (Horse Serum), 10% by volume of FBS (Fetal Bovine Serum), 100 units/mL of penicillin and 100 μg/mL of streptomycin. The cells were cultured at 5% CO2 by volume and 37° C. The cells were cultured for 3 to 5 days to ensure that they were confluent, and then used for experiments.
The culture medium was removed from PC12 cells, which were washed twice with PBS (Phosphate Buffered Saline). The wells of the 96-well plate were divided into 5 groups: non-stimulated group (5 wells), WF administration group (3 wells), WH administration group (3 wells), WM administration group (3 wells) and WR administration group (3 wells). The WR administration group corresponds to Inventive Example, and the non-stimulated group, WF administration group, WH administration group and WM administration group correspond to Comparative Examples.
DMSO (Dimethyl Sulfoxide) was added to the same medium as the medium used to culture PC12 cells, thereby preparing a medium containing 1% by […] of DMSO. Dipeptide WF was added to the same medium as the medium used to culture PC12 cells, thereby preparing a medium containing 1 mM dipeptide WF. In the same way, a medium containing 1 mM dipeptide WH, a medium containing 1 mM dipeptide WM and a medium containing 1 mM dipeptide WR were prepared. The medium containing 1% by volume of DMSO (Dimethyl Sulfoxide) was added to the non-stimulated group, the medium containing 1 mM dipeptide WF was added to the WF administration group, the medium containing 1 mM dipeptide WH was added to the WH administration group, the medium containing 1 mM dipeptide WM was added to the WM administration group, and the medium containing 1 mM dipeptide WR was added to the WR administration group. These groups were incubated at 37° C. for 6 hours. After the incubation, supernatant of each well was collected.
Each supernatant was transferred onto ice. To each supernatant, 25 μL of 2M perchloric acid was added for protein removal, and after 10 minutes, 50 μL of 1M sodium acetate was added for neutralization. After 15 minutes, centrifugation was performed at 4° C. and 20000 G for 20 minutes. 100 μL of each supernatant was collected, and after added with 10 μL of 2 mM 3,4-dihydroxybenzylamine (DHBA) as an internal standard, it was passed through a chromatodisk to obtain a sample. The obtained sample was used for liquid chromatography-tandem mass spectrometry (LC-MS/MS).
LC-MS/MS was performed using a Triple TOF 6600+ system manufactured by SCIEX under the following measurement conditions. A calibration curve was prepared using pure products, and after correcting the peak area of dopamine with the peak area of the internal standard (DHBA), the dopamine concentration (nM) in each sample was calculated from the calibration curve. • Equipment: Triple TOF 6600+ System (SCIEX, Massachusetts, USA) • Column: Inertsil (registered trademark) ODS-4 (GL Sciences, Tokyo, Japan) • Eluent A: 0.1% aqueous solution of formic acid • Eluent B: 0.1% methanol solution of formic acid • Gradient conditions: As listed in Table 1
Data are presented as mean±standard deviation. For statistical processing, Student's t-test was used for comparisons between the non-stimulated group and each administration group. The significance level was set at 5%.

Compound	Change in dopamine concentration compared to the non-stimulated group	Dopamine concentration after stimulation, Mean ± Standard deviation [nM]	Percentage relative to non-stimulated group [%]	Dopamine concentration after stimulation
N[C@@H](Cc1c[nH]c2ccccc12)C(=O)N[C@@H](Cc1ccccc1)C(=O)O [WF, tryptophanylphenylalanine] (H-Trp-Phe-OH)	did not exhibit such a significant increase in dopamine concentration	19.56 ± 1.35	83.23	18.97 nM and 18.60 nM and 21.10 nM
N[C@@H](Cc1c[nH]c2ccccc12)C(=O)N[C@@H](Cc1c[nH]cn1)C(=O)O [WH, tryptophanylhistidine] (H-Trp-His-OH)	did not exhibit such a significant increase in dopamine concentration	22.15 ± 4.13	94.26	26.89 nM and 19.36 nM and 20.20 nM
CSCC[C@H](NC(=O)[C@@H](N)Cc1c[nH]c2ccccc12)C(=O)O [WM, tryptophanylmethionine] (H-Trp-Met-OH)	did not exhibit such a significant increase in dopamine concentration	24.57 ± 7.88	104.55	20.58 nM and 19.48 nM and 33.64 nM
N=C(N)NCCC[C@H](NC(=O)[C@@H](N)Cc1c[nH]c2ccccc12)C(=O)O [WR, tryptophanylarginine] (H-Trp-Arg-OH)	significant increase in dopamine concentration	36.24 ± 2.10	154.23	38.47 nM and 34.30 nM and 35.95 nM
